Laboratory results reported in patent US8821568B2, “Implant modified with non-hydroxylated vitamin D precursors” (Numat Biomedical S.L., priority 2008, dated 2014).
“Also recorded” adds a separate entry of the source.

Legend:
Type in all cases: cell-based, mouse
MC3T3-E1 cells [1] = test: Real-time RT-PCR of osteoblast differentiation markers, coated titanium implants; settings: Ti implants, 48 h
Method: To test the effect of the surface modification, 96-well plates were used. Ti disks were placed into the wells and treatments and UV-activation were performed over there. Cells grown onto untreated polystyrene tissue culture plastic (TCP) were added as a control for all the experiments. Cells were seeded at a density of 30,000 cells/cm^2 and they were maintained in α-MEM supplemented with 10% FCS and antibiotics. Culture media was collected after 48 hours, to test cytotoxicity and the production of the hydroxylated form of vitamin D, 25-D3. Cells were harvested after two days of culture using Trizol reagent (Roche Diagnostics, Mannheim, Germany), to analyze gene expression of several osteoblast differentiation markers and enzymes involved in vitamin D synthesis using real-time RT-PCR. On the other hand, MC3T3-E1 cells were harvested after 21 days to measure calcium content and ALP activity in the cell monolayer.
RNA was isolated from cells using a monophasic solution of phenol and guanidine thiocyanate (Trizol, Roche Diagnostics, Mannheim, Germany) according to the manufacturer's protocol. RNA was quantified at 260 nm using a Nanodrop spectrophotometer (NanoDrop Technologies, Wilmington, Del., USA).
Total RNA previously isolated was reverse-transcribed to cDNA using High Capacity RNA to cDNA kit (Applied Biosystems, Foster City, Calif.) according to the protocol of the supplier. The same amount of total RNA from each sample was converted into cDNA. Each cDNA was diluted ¼ and aliquots were stored at −20° C. until the PCR reactions were carried out.
Real-time RT-PCR was performed for two reference genes: 18S ribosomal RNA (18S rRNA), glyceraldehyde-3-phosphate dehydrogenase (GAPDH); and eleven target genes: alkaline phosphathase (ALP), Interleukin 6 (IL-6), Collagen (Coll-1), Osteocalcin (OC), Bone Morphogenetic Protein 2 (BMP-2), Osterix (Osx), Receptor activator of nuclear factor kappa-B ligand (RANKL), Osteoprogesterin (OPG) and genes involved in vitamin D synthesis such as Vitamin D3 25-hydroxylase (CYP27A1) and 25 hydroxyvitamin D3-1-alpha hydroxylase (CYP27B1). Real-time PCR were performed in the Lightcycler 480® (Roche Diagnostics, Germany). Each reaction contained 5 μl of LightCycler-FastStart DNA Master^PLUS SYBR Green I (Roche Diagnostics, Mannheim, Germany), 0.5 μM of the sense and antisense specific primers (Table 1) and 3 μl of the cDNA dilution in a final volume of 10 μl. The normal amplification program consisted of a preincubation step for denaturation of the template cDNA (10 min 95° C.), followed by 45 cycles consisting of a denaturation step (10 s 95° C.), an annealing step (10 s 60° C., except for ALP that was 10 s at 65° C., OSX with 10 s at 68° C.) and an extension step (10 s 72° C.). After each cycle, fluorescence was measured at 72° C. Every run included a negative control without cDNA template. To confirm amplification specificity, PCR products were subjected to a melting curve analysis on the LightCycler and subsequently 2% agarose/TAE gel electrophoresis, Tm and amplicon size, respectively.
To allow relative quantification after PCR, real-time efficiencies were calculated from the given slopes in the LightCycler 480 software (Roche Diagnostics, Mannheim, Germany) using serial dilutions. Relative quantification after PCR was calculated by normalizing target gene concentration in each sample by the concentration mean of the two reference genes in given sample using the Advanced relative quantification method provided by the LightCycler 480 analysis software.

MC3T3-E1 cells [2] = test: Cell number (DNA content) and cell covered surface on coated titanium implants; settings: Ti implants, 48 h
Method: Cells growing on the different surfaces were lysed after 48 hours of cell culture by a freeze-thaw method in deionized distilled water. Cell lysates were used for determination of DNA quantity using Hoechst 33258 fluorescence assay. Samples were mixed with 20 μg/ml of Hoechst 33258 fluorescence stain (Sigma, St. Quentin Fallavier, France) in THE buffer at pH 7.4 containing 10 mM Tris-HCl, 1 mM EDTA and 2 M NaCl. The intensity of fluorescence was measured at excitation and emission wavelengths of 356/465 nm using a multifunction microplate reader (Cary Eclipse fluorescence spectrophotometer, Agilent Technologies, Santa Clara, United States). Relative fluorescence units were correlated with the cell number using a linear standard curve.
Confocal images were obtained of cells growing in the different treated surfaces at 48 hours of cell culture. […] Various images of each implant were taken with the confocal microscope (Leica DMI 4000B equipped with Leica TCS SPE laser system) by measuring fluorescence signal between 430-480 nm for DAPI and 500-525 nm for Phalloiding-FITC. […]
Quantitation of the percentage of titanium surface covered with MC3T3-E1cells was achieved by analyzing the previous images with ImageJ software (Rasband, W. S., ImageJ, U. S. National Institutes of Health, Bethesda, Md., USA).

MC3T3-E1 cells [3] = test: ELISA of 25-D3 and 1,25-D3 released to the culture media, plastic wells; settings: TCP, 48 hours, 2×10^−3 to 20 nmols
Method: To test the effect of the different treatments onto the plastic wells, 96-well plates made of polystyrene were used and the treatments with 7-DHC performed directly onto them. Cells grown onto untreated TCP were added as a control for all the experiments. Cells were seeded at a density of 30,000 cells/cm^2 and they were maintained in α-MEM supplemented with 10% FCS and antibiotics. Culture media was collected after 48 hours, to test cytotoxicity and the production of the hydroxylated forms of vitamin D. Cells were harvested after 2 days of culture using Trizol reagent (Roche Diagnostics, Mannheim, Germany), to analyse early gene expression response of several osteoblast differentiation markers and enzymes involved in vitamin D synthesis using real-time RT-PCR.
25-D3 and 1,25-D3 released to the culture media after two days of treatment were analyzed by enzyme-linked immunosorbent assay (ELISA). Aliquots from the culture media were centrifuged at 1800 rpm for 5 minutes at 4° C. and supernatants were used for 25-D3 and 1,25-D3 determination following instructions described by the manufacturer (Immunodiagnostic Systems Ltd, Boldon, Tyne and Wear, UK).

Compound: CC(C)CCC[C@@H](C)[C@H]1CC[C@H]2C3=CC=C4C[C@@H](O)CC[C@]4(C)[C@H]3CC[C@]12C [7-DHC, 7-dehydrocholesterol]
- RANKL mRNA expression (MC3T3-E1 cells [1]; 2×10^−2 nmols and 0.2 nmols, UV 15 minutes vs UV-untreated): significant decrease
- RANKL mRNA levels (MC3T3-E1 cells [1]; 10 minutes UV-exposed, compared to ethanol): statistical significant increase
- OPG mRNA levels (MC3T3-E1 cells [1]; 30 min UV-exposed): decrease
- RANKL mRNA levels (MC3T3-E1 cells [1]; 30 minutes UV-exposed): significant decrease
- ALP mRNA levels (MC3T3-E1 cells [1]; UV irradiated vs ethanol and UV-treated groups, significant at 30 minutes): higher ALP mRNA levels
- OC mRNA levels (MC3T3-E1 cells [1]; UV-exposed for 15 min): tendency to increased OC mRNA levels
- RANKL gene expression (MC3T3-E1 cells [1]; all UV-treated groups (2×10^−2, 0.2, 2 nmols; 15 minutes) compared to control): Statistical significances; also recorded: significantly reduced
- OSX mRNA levels (MC3T3-E1 cells [1]; between all the groups, only significant at 10 minutes of UV exposure): very similar
- BMP-2 mRNA levels (MC3T3-E1 cells [1]; when exposed to UV): No statistical differences
- IL-6 mRNA levels (MC3T3-E1 cells [1]; when exposed to UV): No statistical differences
- Collagen type-1 gene expression (MC3T3-E1 cells [1]; with UV exposure time, significant at 15 and 30 minutes): trend to decrease
- Cell number (DNA content) (MC3T3-E1 cells [2]; 30 minutes of UV irradiation vs UV-untreated): significantly higher amount of cells
- Percentage of implant surface covered with cells (MC3T3-E1 cells [2]; 30 minutes of UV irradiation vs without irradiation): significant greatest percentage
- Production of 25-D3 and 1,25-D3 (dose-response) (MC3T3-E1 cells [3]; activated by UV irradiation): a dose-response was found
- Production of 25-D3 and 1,25-D3 (dose-response) (MC3T3-E1 cells [3]; not UV-treated): no dose-response was detected
